Experimental data as given in patent US20100240630A1, “COMPOUNDS AND THERAPEUTIC USES THEREOF” (Myriad Pharmaceuticals, Inc.., priority 2007, published 2010).

system: HIV-1 laboratory strain, NL4-3; assay: MT-4 cytoprotection assay (WST-1 readout); format: cell-based; settings: Human immunodeficiency virus 1, NL43, MT4, 96 h; MT-4 cells infected with HIV-1 NL4-3, MOI 0.0005, four days incubation; read-out: EC50, antiviral activity in the MT4 assay (most active compounds)
Protocol: The compounds of the invention can be tested in the following MT-4 assay to detect antiviral activity.
The HTLV-1 transformed T cell line, MT-4, is highly susceptible to HIV-1 infection. Anti-HIV-1 agents were evaluated in this target cell line by protection from the HIV-induced cytopathic effect. In this assay, viability of both HIV-1 and mock-infected cells was assessed in a colorimetric assay that monitors the ability of metabolically-active cells to reduce the tetrazolium salt WST-1. Cytoprotection by antiviral compounds is indicated by the positive readout of increased WST-1 cleavage.
Briefly, exponentially growing MT-4 cells were mock-infected or batch-infected with the HIV-1 laboratory strain, NL4-3, at a multiplicity of infection of 0.0005. Following a two hour infection, the cells were washed to remove unbound virus and plated in the presence of increasing concentrations of compound. After four days incubation, cytoprotection in the infected cells and compound toxicity in mock-infected cells were analyzed using the WST-1 assay.

Row | Compound | EC50
1 | C=C(C)[C@@H]1CC[C@]2(C#Cc3ccccc3C(=O)O)CC[C@]3(C)C(CCC4[C@@]5(C)CC[C@H](OC(=O)CC(C)(C)C(=O)O)C(C)(C)C5CC[C@]43C)C12 (stereo partly drawn) [Compound 6, 2,2-Dimethyl-succinic acid 4-[(1R,5aR,5bR,9S,11aR)-3a-(2-carboxy-phenylethynyl)-1-isopropenyl-5a,5b,8,8,11a-pentamethyl-icosahydro-cyclopenta[a]chrysen-9-yl]ester] | ≤ 100 nM
2 | C=C(C)[C@@H]1CC[C@]2(C#Cc3sccc3C(=O)O)CC[C@]3(C)C(CCC4[C@@]5(C)CC[C@H](OC(=O)CC(C)(C)C(=O)O)C(C)(C)C5CC[C@]43C)C12 (some centres unmarked) [Compound 9] | ≤ 100 nM
3 | C=C(C)[C@@H]1CC[C@]2(C#Cc3ccsc3C(=O)O)CC[C@]3(C)C(CCC4[C@@]5(C)CC[C@H](OC(=O)CC(C)(C)C(=O)O)C(C)(C)C5CC[C@]43C)C12 (some centres unmarked) [Compound 11] | ≤ 100 nM
4 | C=C(C)[C@@H]1CC[C@]2(C#Cc3cc(F)ccc3C(=O)O)CC[C@]3(C)C(CCC4[C@@]5(C)CC[C@H](OC(=O)CC(C)(C)C(=O)O)C(C)(C)C5CC[C@]43C)C12 (some centres unmarked) [Compound 13] | ≤ 100 nM
5 | C=C(C)[C@@H]1CC[C@]2(C#Cc3ccsc3-c3nnn[nH]3)CC[C@]3(C)C(CCC4[C@@]5(C)CC[C@H](OC(=O)CC(C)(C)C(=O)O)C(C)(C)C5CC[C@]43C)C12 (some centres unmarked) [Compound 18] | ≤ 100 nM
6 | C=C(C)[C@@H]1CC[C@]2(C#Cc3cccc(F)c3C(=O)O)CC[C@]3(C)C(CCC4[C@@]5(C)CC[C@H](OC(=O)CC(C)(C)C(=O)O)C(C)(C)C5CC[C@]43C)C12 (some centres unmarked) [Compound 20] | ≤ 100 nM
7 | C=C(C)[C@@H]1CC[C@]2(C#Cc3ccc(F)cc3C(=O)O)CC[C@]3(C)C(CCC4[C@@]5(C)CC[C@H](OC(=O)CC(C)(C)C(=O)O)C(C)(C)C5CC[C@]43C)C12 (some centres unmarked) [Compound 21] | ≤ 100 nM
8 | C=C(C)[C@@H]1CC[C@]2(C#Cc3c(C)cccc3C(=O)O)CC[C@]3(C)C(CCC4[C@@]5(C)CC[C@H](OC(=O)CC(C)(C)C(=O)O)C(C)(C)C5CC[C@]43C)C12 (some centres unmarked) [Compound 22] | ≤ 100 nM
9 | C=C(C)[C@@H]1CC[C@]2(C#Cc3ccccc3C(N)=O)CC[C@]3(C)C(CCC4[C@@]5(C)CC[C@H](OC(=O)CC(C)(C)C(=O)O)C(C)(C)C5CC[C@]43C)C12 (some centres unmarked) [Compound 27] | ≤ 100 nM
10 | C=C(C)[C@@H]1CC[C@]2(CCc3ccccc3C(=O)O)CC[C@]3(C)C(CCC4[C@@]5(C)CC[C@H](OC(=O)CC(C)(C)C(=O)O)C(C)(C)C5CC[C@]43C)C12 (some centres unmarked) [Compound 28] | ≤ 100 nM
11 | C=C(C)[C@@H]1CC[C@]2(C#Cc3ccccc3C(=O)N(C)C)CC[C@]3(C)C(CCC4[C@@]5(C)CC[C@H](OC(=O)CC(C)(C)C(=O)O)C(C)(C)C5CC[C@]43C)C12 (some centres unmarked) [Compound 30] | ≤ 100 nM
12 | C=C(C)[C@@H]1CC[C@]2(C#Cc3ccccc3S(C)(=O)=O)CC[C@]3(C)C(CCC4[C@@]5(C)CC[C@H](OC(=O)CC(C)(C)C(=O)O)C(C)(C)C5CC[C@]43C)C12 (some centres unmarked) [Compound 32] | ≤ 100 nM
13 | C=C(C)[C@@H]1CC[C@]2(C#Cc3cc(Cl)ccc3C(=O)O)CC[C@]3(C)C(CCC4[C@@]5(C)CC[C@H](OC(=O)CC(C)(C)C(=O)O)C(C)(C)C5CC[C@]43C)C12 (some centres unmarked) [Compound 34] | ≤ 100 nM
14 | C=C(C)[C@@H]1CC[C@]2(C#Cc3ccc(Cl)cc3C(=O)O)CC[C@]3(C)C(CCC4[C@@]5(C)CCC(OC(=O)CC(C)(C)C(=O)O)C(C)(C)C5CC[C@]43C)C12 (some centres unmarked) [Compound 35] | ≤ 100 nM
15 | C=C(C)[C@@H]1CC[C@]2(C#Cc3cc(C)ccc3C(=O)O)CC[C@]3(C)C(CCC4[C@@]5(C)CC[C@H](OC(=O)CC(C)(C)C(=O)O)C(C)(C)C5CC[C@]43C)C12 (some centres unmarked) [Compound 36] | ≤ 100 nM
16 | C=C(C)[C@@H]1CC[C@]2(C#CC3=C(C(=O)O)CCC3)CC[C@]3(C)C(CCC4[C@@]5(C)CC[C@H](OC(=O)CC(C)(C)C(=O)O)C(C)(C)C5CC[C@]43C)C12 (some centres unmarked) [Compound 41] | ≤ 100 nM
17 | C=C(C)[C@@H]1CC[C@]2(C#CC3=C(C(=O)O)CN(C(=O)OC(C)(C)C)CC3)CC[C@]3(C)C(CCC4[C@@]5(C)CC[C@H](OC(=O)CC(C)(C)C(=O)O)C(C)(C)C5CC[C@]43C)C12 (some centres unmarked) [Compound 42] | ≤ 100 nM
18 | C=C(C)[C@@H]1CC[C@]2(C#CC3=C(C(=O)O)CNCC3)CC[C@]3(C)C(CCC4[C@@]5(C)CC[C@H](OC(=O)CC(C)(C)C(=O)O)C(C)(C)C5CC[C@]43C)C12 (some centres unmarked) [Compound 43] | ≤ 100 nM
19 | C=C(C)[C@@H]1CC[C@]2(C#CC3=C(C(=O)O)CCCC3)CC[C@]3(C)C(CCC4[C@@]5(C)CC[C@H](OC(=O)CC(C)(C)C(=O)O)C(C)(C)C5CC[C@]43C)C12 (some centres unmarked) [Compound 45] | ≤ 100 nM
20 | C=C(C)[C@@H]1CC[C@]2(C#Cc3ccc(OC)c(OC)c3C(=O)O)CC[C@]3(C)C(CCC4[C@@]5(C)CC[C@H](OC(=O)CC(C)(C)C(=O)O)C(C)(C)C5CC[C@]43C)C12 (some centres unmarked) [Compound 50] | ≤ 100 nM
21 | C=C(C)[C@@H]1CC[C@]2(C#Cc3cccc(Cl)c3C(=O)O)CC[C@]3(C)C(CCC4[C@@]5(C)CC[C@H](OC(=O)CC(C)(C)C(=O)O)C(C)(C)C5CC[C@]43C)C12 (some centres unmarked) [Compound 51] | ≤ 100 nM
22 | C=C(C)[C@@H]1CC[C@]2(C#Cc3ccncc3C(=O)O)CC[C@]3(C)C(CCC4[C@@]5(C)CC[C@H](OC(=O)CC(C)(C)C(=O)O)C(C)(C)C5CC[C@]43C)C12 (some centres unmarked) [Compound 54] | ≤ 100 nM
23 | C=C(C)[C@@H]1CC[C@]2(C#Cc3ccccc3C(=O)NS(C)(=O)=O)CC[C@]3(C)C(CCC4[C@@]5(C)CC[C@H](OC(=O)CC(C)(C)C(=O)O)C(C)(C)C5CC[C@]43C)C12 (some centres unmarked) [Compound 55] | ≤ 100 nM
